Test results taken from patent US7713960B2, “Inhibition of the Raf/Mek/P-Erk pathway for treating cancer” (University of South Florida, priority 2005, dated 2010).
Counter-ions that a name gives are not always drawn.

Tests used:
ACHN cells = experiment: Nude mouse xenograft model, ACHN (s.c.); assay type: in vivo, nude mice; details: i.p. 200 mpk/day
From the text: (§1) Anti-tumor activity in nude mouse xenograft model—Female athymic nude (nu/nu) mice, 5-6 weeks old, were purchased from Charles River (Wilmington, Mass.) and allowed to acclimate in the animal facility for one week. After harvesting, A-549, SNB-19, ACHN, and HCT-116 cells were, resuspended in sterile PBS, and injected s.c. into the right and left flanks (10×10^6 cells per flank) of the mice as previously described (Sun et al., 2005). For MDA-MB-231, cells were harvested and resuspended in PBS (10×10^6 cells per 50 μl) and an equal volume of Matrigel (BD Biosciences, San Jose, Calif.). 100 μl of MDA-MB-231 cells in PBS/Matrigel were injected s.c. into the mammary fat pads between the 2nd and 3rd nipples on each side of the mice. Once the tumors reached approximately 200-300 mm^3 the mice were randomized and treated i.p. with 0.1 ml vehicle (PBS) or ARA-211. Each treatment group consisted of five mice (2 tumors per mouse, a total of 10 tumors). The tumor volumes were determined by measuring the length (l) and width (w) and calculating the volume (V=w^2l/2). Statistical significance between the control and treated animals was determined using a student's t test.

P-Erk 1/2 [1] = experiment: P-Erk 1/2 levels (Western blotting), ACHN; assay type: cell-based, human
Procedure: (§2) Western Blotting—Treated cell samples were lysed in 30 mM HEPES, 10 mM NaCl, 5 mM MgCl2, 25 mM NaF, 1 mM EGTA, 1% Triton-X-100, 10% Glycerol, 2 mM Sodium orthovanidate, 10 μg/mL aprotinin, 10 μg/mL soybean trypsin inhibitor, 25 μg/mL leupeptin, 2 mM phenylmethylsulfonylfluoride (PMSF), 6.4 mg/mL p-nitrophenylphosphate for 30 minutes at 4° C., and proteins run on SDS-PAGE gels then transferred to nitrocellulose membranes. Membranes were blocked in either 5% milk in PBS, pH 7.4, containing 0.1% Tween-20 (PBS-T) or 1% BSA in TBS, pH 7.5, containing 0.1% Tween-20 (TBS-T). Phospho-STAT3 and phospho-AKT antibodies were diluted in 1% BSA in TBS-T while phospho-c-Raf, phospho-Mek, and phospho-p44/p42 MAPK antibodies (Cell Signaling) were diluted in 5% milk in PBS-T for either 1 hour at room temperature or overnight at 4° C. HRP-conjugated secondary antibodies (Jackson ImmunoResearch, West Grove, Pa.) were diluted in 5% milk in PBS-T or TBS-T at a 1:1000 dilution for one hour at room temperature. Western blots results were visualized using enhanced chemiluminescence. Stripping of the membranes for reblotting was done using stripping buffer (62.5 mM Tris pH 7.6, 2% SDS, 0.7% 2-mercaptoethanol) at 50° C. for 30 minutes.

P-Erk 1/2 [2] = experiment: Growth factor (EGF) stimulation of P-Erk 1/2, MDA-MB-231 cells; assay type: cell-based, human
Mek-1 = experiment: In vivo kinase assay, intact MDA-MB-231 cells treated, Mek-1; assay type: cell-based, human; details: 10 μM
Procedure: (§3) In Vitro Kinase Assays—MDA-MB-231 cells (2×10^6) were lysed for 30 minutes at 4° C. in RIPA-150 buffer (10 mM Tris pH 7.5, 150 mM NaCl, 10% glycerol, 5 mM EDTA, 1% Triton X-100, 0.1% SDS, 100 μM sodium orthovanadate, 1 μM aprotinin, 10 μM leupeptin, 10 μM antipain). Cell debris was pelleted at 13000 rpm for 15 minutes at 4° C. and the lysate was rocked overnight with 10 μg of either c-Raf or MEK antibodies (Santa Cruz Biotechnologies, Santa Cruz, Calif.). 25 μl of protein A/G PLUS agarose (Santa Cruz Biotechnology) was then added and rocked for 4 hours at 4° C. Samples were spun at 2000 rpm for 5 minutes to collect the agarose beads, which were then washed four times with lysis buffer. On the final wash each pellet was divided into 5. […]

protein kinase A (PKA) = experiment: PKA kinase assay, MDA-MB-231 cells; assay type: cell-based, human
Procedure: PKA Kinase Assay—PKA kinase assays were performed with the SignaTECT® cAMP-Dependent Protein Kinase (PKA) Assay System (Promega, Madison Wis.) according to the manufacturer's protocol. Briefly, cells were plated (5×10^6) into 100 mm dishes and treated the next day with ARA-211, H-89 (EMD Biosciences), or vehicle. Cells were lysed using a Dounce homogenizer and lysates were incubated in the supplied kinase reaction buffer, with ^32P-ATP and biotin labeled PKA peptide substrate for 5 min at 37° C. Once the reactions were quenched they were spotted onto streptavidin membranes and ^32P-ATP transfer was measured via scintillation counter.

MDA-MB-231 cells [3] = experiment: Nude mouse xenograft model, MDA-MB-231 (mammary fat pads); assay type: in vivo, nude mice; details: MDA-MB-231 xenograft; i.p. 200 mpk/day
From the text: as §1

P-Erk 1/2 [4] = experiment: P-Erk 1/2 levels (Western blotting), HCT-116; assay type: cell-based, human
Procedure: as §2

MDA-MB-231 cells [5] = experiment: Anchorage-independent growth (soft agar assay), MDA-MB-231; assay type: cell-based, human
Procedure: (§4) Soft Agar Assay—Anchorage independent growth assays were performed as previously described (Lerner et al., 1997). Briefly, agar was diluted to 0.3% in propagation media containing 20,000 cells and either vehicle or ARA-211 and 1 ml of cell/agar mixture plated on top of 2 ml of a 0.6% layer of agar in medium alone. Cells were grown for three to four weeks at 37° C., 10% Co2 and were fed weekly with 100 μl per well of media/treatment. Quantification of colonies was done using a GS-700 scanning densitometer.

c-Raf-1 = experiment: In vivo kinase assay, intact MDA-MB-231 cells treated, c-Raf-1; assay type: cell-based, human; details: 10 μM
Procedure: as §3

HCT-116 cells = experiment: Anchorage-independent growth (soft agar assay), HCT-116; assay type: cell-based, human
Procedure: as §4

A-549 cells = experiment: Anchorage-independent growth (soft agar assay), A-549; assay type: cell-based, human; details: n = 6
Procedure: as §4

CC(C)(C)NCC(O)c1ccc(O)c(CO)n1 (centres unmarked) [ARA-211, 2-hydroxymethyl-3-hydroxy-6-(1-hydroxy-2-tert-butylaminoethyl) pyridine, dihydrochloride]
growth of tumors (ACHN cells): suppressed tumor growth
P-Erk ½ (% Inhibition) (P-Erk 1/2 [1]): 91%
growth factor (EGF) stimulation of P-Erk 1/2 (P-Erk 1/2 [2]): is blocked
Mek-1 kinase activity, intact cells first treated (Mek-1): blocked
activation of protein kinase A (PKA) (protein kinase A (PKA)): activation of protein kinase A (PKA)
growth of tumors (MDA-MB-231 cells [3]): caused tumor regression
P-Erk ½ (% Inhibition) (P-Erk 1/2 [4]): 0%
Anchorage Independent Growth (% Inhibition) (MDA-MB-231 cells [5]): 82.7 ± 7.9%
c-Raf-1 kinase activity, intact cells first treated (c-Raf-1): blocked
Anchorage Independent Growth (% Inhibition) (HCT-116 cells): 7.3 ± 3.1%
Anchorage Independent Growth (% Inhibition) (A-549 cells): 0 (n = 6) %
